The values below come from ChEMBL document CHEMBL4028880, “Structure-Activity Relationships of New Natural Product-Based Diaryloxazoles with Selective Activity against Androgen Receptor-Positive Breast Cancer Cells” (J Med Chem, 2017).

The nature of the data set: Aqueous solubility of the compound. In kind it is physicochemical. Conditions: buffer.

Molecules are shown by their SMILES.

Regarding `CC(C)=CCOc1ccc(-c2cnc(-c3ccccc3)o2)cc1`, the solubility result is on record as “Insoluble”.
